Experimental data from patent US6087358A (priority 1997, dated 2000).
≈ marks a conversion by molar mass, not a printed value. Like-named read-outs stand apart in the source and are kept apart here.

Tests used:
[1] = system: Mycobacterium bovis BCG (recombinant strain); test: microbe, parasite or virus in culture; format: cell-based; details: 6 days 37° C.; for MIC: Mycobacterium tuberculosis variant bovis BCG, BCG, 144 h, read-out: MIC, column A, 3(S) compounds
[2] = system: Mycobacterium tuberculosis H37Rv (sensitive strain); test: MIC as determined by the BACTEC method, sensitive strain; format: cell-based; details: M. tuberculosis H37Rv (sensitive strain), read-out: MIC, column B, 3(S) compounds
[3] = system: Clostridium difficile ATCC 17857; test: In vitro inhibition of Clostridium difficile (Oxyrase broth microdilution MIC); format: cell-based; details: Clostridioides difficile, ATCC17857; Clostridium difficile ATCC 17857, Oxyrase broth; read-out: MIC, column D, 3(S) compounds
[4] = system: Mycobacterium tuberculosis (rMTB); test: In vivo antimycobacterial activity against M. tuberculosis (rMTB) in spleens of mice; design: species or system Mycobacterium tuberculosis Erdman, in female BALB/c mice; details: 25 mg/kg daily oral gavage, CM-2, 10 days, control 422,866 (PA-824, 636, 1297) or 362,274 (others)
[5] = system: Mycobacterium tuberculosis (rMTB); test: In vivo antimycobacterial activity against M. tuberculosis (rMTB) in lungs of mice; design: species or system Mycobacterium tuberculosis Erdman, in female BALB/c mice; details: 25 mg/kg daily oral gavage, CM-2, 10 days, control 117,258 (PA-824, 636, 1297) or 22,751 (others)
Cryptosporidium parvum = test: Inhibition of Cryptosporidium parvum (ELISA, infected HCT-8 monolayers); format: cell-based; details: Cryptosporidium parvum, HCT-8, 48 h, read-out: Percent Inhibition of C. parvum
Procedure: Susceptibility testing against Cryptosporidium was performed according to published procedures (K. Woods, M. Nesterenko, S. Upton, "Development of a microtiter ELISA to quantify development of Cryptosporidium parvum in vitro," FEMS Microbiology Letters, 128:89-94 (1995).
Compounds were solubilized to a concentration of 100 mg/mL in 100% DMSO. DMSO solutions of test compounds were added to the test wells of a microplate at a volume that produced a final concentration of DMSO of 0.2%. Monolayers of human ileocecal adenocarcinoma cells (HCT-8) were prepared by growth in RPMI 1640 medium in 96-Well tissue culture trays for 24 h. Oocysts of C. parvum were allowed to excyst in 10% bleach for 10 min prior to use. Monolayers were then infected with 2-3×10^4 oocysts/well and incubated in the presence or absence of compound for 48 h at 35° C. in 5% CO2 and 95% humidity. Background consisted of wells containing killed oocysts (freeze thaw cycle following 30 sec exposure to liquid nitrogen). Growth control wells were infected with 2-3×10^4 oocysts/well in the absence of test compounds. At the end of incubation, wells were washed and fixed by adding 100 uL of 4% formalin in phosphate buffered saline (pH 7.3) per well for 2 h. After blocking with 1% bovine serum albumin, and 0.002% Tween 20, 50 uL of rat anti-Cryptosporidium membrane protein antiserum was added. After 30 min, wells were washed in PBS and 50 uL of secondary antibody (goat anti-rat antibody conjugated with horseradish peroxidase) was added. After 20-30 min, wells were washed again in PBS and 50 uL of 3,3',5,5'-tetramethylbenzidine solution was added. Plates were allowed to develop for 10-15 min and the optical density was read at 630 nm. Percent inhibition was calculated by comparing the optical density of the drug treated group to that of the untreated control.

Helicobacter pylori = test: In vitro inhibition of Helicobacter pylori (broth microdilution MIC); details: Helicobacter pylori
[6] = system: Helicobacter pylori Strain 4187E; test: In vivo activity against Helicobacter pylori strain 4187E in mice; design: species or system in outbred female white mice; details: oral gavage, four days
Description: Outbred female white mice (20 grams) were infected by oral gavage with 10^7 -10^8 colony forming units of H. pylori strain 4187E (originally isolated from a patient with a duodenal ulcer). […] Treatment continued for four days. Clarithromycin, administered at the same concentration and for the same duration, was included as a positive control. One group of animals also received an equal volume of formulation vehicle alone, to provide a negative control.
Five days after cessation of treatment, all animals were sacrificed, the stomachs were removed, opened, and the contents washed out. The entire mucosal surface was then spread evenly over the surface of an agar plate containing antibiotics appropriate for the prevention of growth of microorganisms other than Helicobacter spp. After seven days incubation under microaeropilic conditions at 37° C., culture plates were evaluated for bacterial growth.

Helicobacter felis = test: In vivo activity against Helicobacter felis in mice (urease test of stomach biopsy); design: species or system in female CD-1 mice; details: 50 mg/kg three times daily oral gavage, CM-2, four days; vehicle and untreated 100
Procedure: Female CD-1 mice weighing 30 grams were infected by oral gavage with 10^8 -10^9 colony forming units of H. felis. This infection process was repeated two, and four days, thereafter. Colonization of the stomach was allowed to occur over a seven day period. Animals were segregated into groups of five, and were treated three times daily by oral gavage with 50 mg/kg of test drugs prepared in the CM-2 formulation vehicle (Example 52). Treatment continued for four days. One group of animals received an equal volume of formulation vehicle alone, to ensure that the vehicle had no effect on the Helicobacter infection. A separate untreated control group was also included.
All animals were then sacrificed, the stomachs were removed, opened, and the contents washed out. A five millimeter diameter biopsy was removed, and transferred to a urease test solution containing a pH-sensitive dye, which was then incubated at 37° C. incubator for 24 hours. A blue or purple coloration in this test solution signifies a positive reaction, indicating the continued presence of viable Helicobacter bacteria; a negative result is indicated by a yellow coloration. Viable Helicobacter bacteria produce a urease enzyme which converts urea, of which there is an abundant supply in the stomach (from saliva and gastric juices), into bicarbonate and ammonia, which are strong bases. This mechanism is considered to provide conditions more amenable to the survival of Helicobacter in the otherwise acidic conditions prevalent in the stomach.

[7] = 72 h, read-out: MIC against Helicobacter pylori, strain 17 (Table 5A)
[8] = 72 h, read-out: MIC against Helicobacter pylori, strain 19 (Table 5A)
[9] = 72 h, read-out: MIC against Helicobacter pylori, strain 20 (Table 5A)
[10] = 72 h, read-out: MIC against Helicobacter pylori, strain 40 (Table 5A)
[11] = 72 h, read-out: MIC against Helicobacter pylori, strain 43 (Table 5A)
[12] = 72 h, read-out: MIC against Helicobacter pylori, strain 76 (Table 5A)
[13] = ATCC43504, 72 h, read-out: MIC against Helicobacter pylori, strain ATCC 43504 (Table 5A)

Compound | MIC [1] [µg/mL] | MIC [3] [µg/mL] | Average RLUs, M. tuberculosis (rMTB) in spleens [4] | Average RLUs, M. tuberculosis (rMTB) in lungs [5] | MIC (Helicobacter pylori; [7]) [µg/mL] | MIC (Helicobacter pylori; [8]) [µg/mL] | MIC (Helicobacter pylori; [9]) [µg/mL] | MIC (Helicobacter pylori; [10]) [µg/mL] | MIC (Helicobacter pylori; [11]) [µg/mL] | MIC (Helicobacter pylori; [12]) [µg/mL] | MIC (Helicobacter pylori; [13]) [µg/mL] | % Eradication ([6]; once daily 25 mg/kg) [%] | % Eradication ([6]; twice daily 5 mg/kg) [%] | % Eradication ([6]; twice daily 50 mg/kg) [%] | % Survival (Helicobacter felis) [%] | other results
CC(C)=CCC/C(C)=C/CO[C@@H]1COc2nc([N+](=O)[O-])cn2C1 [PA-626] | 0.5 (≈ 1.56 µM) | 0.8 (≈ 2.49 µM) |  |  |  |  |  |  |  |  |  |  |  |  |  | MIC [2]: 0.13 µg/mL (≈ 0.405 µM)
4-Bromobenzyl Carbamate of 3S 3-Hydroxy-6-nitro-3,4-dihydro-[2-1b]imidazopyran [PA-1324] |  |  | 85,130 RLUs | 1,612 RLUs |  |  |  |  |  |  |  |  |  |  |  | MIC, column A, 3(S) compounds [1]: 0.015
CCCCCCCCC(=O)N[C@@H]1COc2nc([N+](=O)[O-])cn2C1 [PA-1139] | 0.06 (≈ 0.185 µM) | 3.12 (≈ 9.62 µM) |  |  | > 25 | 1.5 (≈ 4.62 µM) | 0.8 (≈ 2.47 µM) | 0.8 (≈ 2.47 µM) | 1.5 (≈ 4.62 µM) | 25 (≈ 77.1 µM) | > 25 |  |  |  |  | inhibition at 25 µg/mL (Cryptosporidium parvum; 25 μg/mL): -13%; inhibition at 50 µg/mL (Cryptosporidium parvum; 50 μg/mL): -3%; inhibition at 100 µg/mL (Cryptosporidium parvum; 100 μg/mL): 56%; inhibition at 200 µg/mL (Cryptosporidium parvum; 200 μg/mL): 98.9%
O=C(Nc1ccc(OC(F)(F)F)cc1)O[C@@H]1COc2nc([N+](=O)[O-])cn2C1 [PA-1297, 4-(Trifluoromethoxy)phenyl Carbamate of 3S Hydroxy-6-nitro-2H-3,4-dihydo-[2-1b]imidazopyran] | 0.015 (≈ 0.0386 µM) | 0.78 (≈ 2.01 µM) | 66,473 RLUs | 3,354 RLUs |  |  |  |  |  |  |  | 0 | 0 | 0 | 100 | 
CCCCc1ccc(CO[C@@H]2COc3nc([N+](=O)[O-])cn3C2)cc1 [PA-822] | 0.06 (≈ 0.181 µM) | 12.5 (≈ 37.7 µM) |  |  | 25 (≈ 75.4 µM) | 0.2 (≈ 0.604 µM) | 0.2 (≈ 0.604 µM) | 0.2 (≈ 0.604 µM) | 0.4 (≈ 1.21 µM) | 6.25 (≈ 18.9 µM) | > 25 | 0 | 0 | 0 | 100 | 
